In patent publication US20210395239A1 (Hoffmann-La Roche Inc., priority 2018, published 2021):

Molecular target: T1, human TLR8 (Homo sapiens, UniProt Q9NR97)
T1 construct: host or cells: HEK293 (HEK-Blue hTLR8)
T1 sequence (Q9NR97 27-1041): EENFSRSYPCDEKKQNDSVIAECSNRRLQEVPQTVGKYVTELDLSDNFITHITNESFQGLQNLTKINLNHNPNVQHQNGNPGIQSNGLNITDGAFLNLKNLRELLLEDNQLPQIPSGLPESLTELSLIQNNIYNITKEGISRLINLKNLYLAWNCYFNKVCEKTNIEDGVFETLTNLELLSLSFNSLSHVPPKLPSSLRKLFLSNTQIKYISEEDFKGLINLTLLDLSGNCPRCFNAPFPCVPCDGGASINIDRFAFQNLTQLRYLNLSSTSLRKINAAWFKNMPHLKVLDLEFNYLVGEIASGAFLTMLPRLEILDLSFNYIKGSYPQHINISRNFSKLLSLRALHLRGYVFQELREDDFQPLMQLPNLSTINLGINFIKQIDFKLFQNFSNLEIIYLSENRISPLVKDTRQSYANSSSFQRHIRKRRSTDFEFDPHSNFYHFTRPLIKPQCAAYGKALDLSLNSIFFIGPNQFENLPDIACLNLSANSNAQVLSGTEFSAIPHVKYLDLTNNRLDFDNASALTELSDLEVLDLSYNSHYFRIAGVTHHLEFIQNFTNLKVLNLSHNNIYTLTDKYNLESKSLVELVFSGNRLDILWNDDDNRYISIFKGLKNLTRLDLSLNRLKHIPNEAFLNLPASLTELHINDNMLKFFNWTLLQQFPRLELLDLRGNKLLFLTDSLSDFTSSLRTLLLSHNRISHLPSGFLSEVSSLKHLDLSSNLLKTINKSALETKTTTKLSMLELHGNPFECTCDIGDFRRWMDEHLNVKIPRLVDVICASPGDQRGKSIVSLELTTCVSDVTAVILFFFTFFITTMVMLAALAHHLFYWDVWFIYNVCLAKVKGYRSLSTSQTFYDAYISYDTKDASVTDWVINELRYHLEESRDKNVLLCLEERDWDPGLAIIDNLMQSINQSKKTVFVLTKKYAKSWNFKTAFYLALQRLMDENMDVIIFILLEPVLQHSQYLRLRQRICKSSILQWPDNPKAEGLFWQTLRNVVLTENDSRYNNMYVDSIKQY
Test: HEK293-Blue-hTLR-8 cells assay (SEAP reporter, R848 stimulation)
Type: cell-based
Conditions: HEK293-Blue-hTLR8 cells, R848, 20 hrs; read-out: HEK/hTLR8 IC50
Method in brief: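 HEK293-Blue-hTLR8 cells (NF-κB/AP-1-driven SEAP) incubated 20 h at 37° C with serially diluted compound (1% DMSO) plus R848 stimulation. Supernatant SEAP measured with QUANTI-Blue, 2 h at 37° C, absorbance 620–655 nm.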

Row | SMILES | IC50 [nM]
1 | Cc1cc(N2CCN(C[C@H]3CN(c4ccc(C#N)c5ncccc45)C[C@@H](C)O3)CC2)nc(N2C[C@H](N)C[C@H](F)C2)n1 (relative stereo) [Example 74, 5-[(2R,6S)-2-methyl-6-[[4-[6-methyl-2-[cis-3-amino-5-fluoro-1-piperidyl]pyrimidin-4-yl]piperazin-1-yl]methyl]morpholin-4-yl]quinoline-8-carbonitrile] | 3
2 | Cc1cc(N2CCN(C[C@H]3CN(c4ccc(C#N)c5ncccc45)C[C@@H](C)O3)CC2)nc(N2C[C@H](N)C[C@@H](F)C2)n1 (relative stereo) [Example 75, 5-[(2R,6S)-2-methyl-6-[[4-[6-methyl-2-[trans-3-amino-5-fluoro-1-piperidyl]pyrimidin-4-yl]piperazin-1-yl]methyl]morpholin-4-yl]quinoline-8-carbonitrile] | 3
3 | CO[C@H]1CN(c2nc(C)cc(N3CCN(C[C@H]4CN(c5ccc(C#N)c6ncccc56)C[C@@H](C)O4)CC3)n2)C[C@@H]1N (single isomer, unassigned) [Example 69A] | 2
4 | CO[C@@H]1CN(c2nc(C)cc(N3CCN(C[C@H]4CN(c5ccc(C#N)c6ncccc56)C[C@@H](C)O4)CC3)n2)C[C@H]1N (single isomer, unassigned) [Example 69B] | 2
5 | COC1CNCC1Nc1nc(C)cc(N2CCN(C[C@H]3CN(c4ccc(C#N)c5ncccc45)C[C@@H](C)O3)CC2)n1 (stereo in doubt) [Example 70, 5-[(2S,6R)-2-[[4-[2-[[(3R,4R)-4-methoxypyrrolidin-3-yl]amino]-6-methyl-pyrimidin-4-yl]piperazin-1-yl]methyl]-6-methyl-morpholin-4-yl]quinoline-8-carbonitrile] | 12
6 | Cc1cc(N2CCN(C[C@H]3CN(c4ccc(C#N)c5ncccc45)C[C@@H](C)O3)CC2)nc(NC2CNCC2F)n1 (stereo in doubt) [Example 73, 5-[(2S,6R)-2-[[4-[2-[[(3S,4R)-4-fluoropyrrolidin-3-yl]amino]-6-methyl-pyrimidin-4-yl]piperazin-1-yl]methyl]-6-methyl-morpholin-4-yl]quinoline-8-carbonitrile] | 17
7 | Cc1cc(N2CCN(C[C@H]3CN(c4ccc(C#N)c5ncccc45)C[C@@H](C)O3)CC2)nc(N[C@@H]2CNC[C@@H]2F)n1 [Example 71, 5-[(2S,6R)-2-[[4-[2-[[(3R,4S)-4-fluoropyrrolidin-3-yl]amino]-6-methyl-pyrimidin-4-yl]piperazin-1-yl]methyl]-6-methyl-morpholin-4-yl]quinoline-8-carbonitrile] | 15
8 | CO[C@@H]1CN(c2nc(C)cc(N3CCN(C[C@H]4CN(c5ccc(C#N)c6ncccc56)C[C@@H](C)O4)CC3)n2)C[C@@H]1N [Example 72, 5-[(2S,6R)-2-[[4-[2-[(3S,4R)-3-amino-4-methoxy-pyrrolidin-1-yl]-6-methyl-pyrimidin-4-yl]piperazin-1-yl]methyl]-6-methyl-morpholin-4-yl]quinoline-8-carbonitrile] | 3
9 | Cc1cc(N2CCN(C[C@H]3CN(c4ccc(C#N)c5ncccc45)C[C@@H](C)O3)CC2)nc(N[C@@H]2CNC[C@H]2F)n1 [Example 76, 5-[(2S,6R)-2-[[4-[2-[[(3R,4R)-4-fluoropyrrolidin-3-yl]amino]-6-methyl-pyrimidin-4-yl]piperazin-1-yl]methyl]-6-methyl-morpholin-4-yl]quinoline-8-carbonitrile] | 3
10 | Cc1cc(N2CCN(C[C@H]3CN(c4ccc(C#N)c5ncccc45)C[C@@H](C)O3)CC2)nc(N2C[C@@H](N)C[C@@H](F)C2)n1 [Example 77, 5-[(2S,6R)-2-[[4-[2-[(3S,5R)-3-amino-5-fluoro-1-piperidyl]-6-methyl-pyrimidin-4-yl]piperazin-1-yl]methyl]-6-methyl-morpholin-4-yl]quinoline-8-carbonitrile] | 2
11 | Cc1cc(N2CCN(C[C@H]3CN(c4ccc(C#N)c5ncccc45)C[C@@H](C)O3)CC2)nc(N2CC[C@@H](N)[C@@H](F)C2)n1 [Example 78, 5-[(2S,6R)-2-[[4-[2-[(3S,4R)-4-amino-3-fluoro-1-piperidyl]-6-methyl-pyrimidin-4-yl]piperazin-1-yl]methyl]-6-methyl-morpholin-4-yl]quinoline-8-carbonitrile] | 1
12 | Cc1cc(N2CCN(C[C@H]3CN(c4ccc(C#N)c5ncccc45)C[C@@H](C)O3)CC2)nc(N2C[C@@H](N)[C@H](F)C2)n1 [Example 79, 5-[(2S,6R)-2-[[4-[2-[(3R,4R)-3-amino-4-fluoro-pyrrolidin-1-yl]-6-methyl-pyrimidin-4-yl]piperazin-1-yl]methyl]-6-methyl-morpholin-4-yl]quinoline-8-carbonitrile] | 2

Other lines, results leading:

Row | IC50 [nM] | SMILES
13 | 7 | Cc1cc(N2CCN(C[C@H]3CN(c4ccc(C#N)c5ncccc45)C[C@@H](C)O3)CC2)nc(N2CC[C@@H](F)C(N)C2)n1 (single isomer, unassigned) [Example 84]
14 | 2 | COC1CN(c2nc(C)cc(N3CCN(C[C@H]4CN(c5ccc(C#N)c6ncccc56)C[C@@H](C)O4)CC3)n2)CC1N (single isomer, unassigned) [Example 88]
15 | 1 | Cc1cc(N2CCN(C[C@H]3CN(c4ccc(C#N)c5ncccc45)C[C@@H](C)O3)CC2)nc(N2CC[C@@H](N)C(F)C2)n1 (stereo in doubt) [Example 82, 5-[(2S,6R)-2-[[4-[2-[(3R,4R)-4-amino-3-fluoro-1-piperidyl]-6-methyl-pyrimidin-4-yl]piperazin-1-yl]methyl]-6-methyl-morpholin-4-yl]quinoline-8-carbonitrile]
16 | 2 | CO[C@H]1CN(c2nc(C)cc(N3CCN(C[C@H]4CN(c5ccc(C#N)c6ncccc56)C[C@@H](C)O4)CC3)n2)CCC1N (stereo in doubt) [Example 90, 5-[(2S,6R)-2-[[4-[2-[(3S,4S)-4-amino-3-methoxy-1-piperidyl]-6-methyl-pyrimidin-4-yl]piperazin-1-yl]methyl]-6-methyl-morpholin-4-yl]quinoline-8-carbonitrile]
17 | 6 | Cc1cc(N2CCN(C[C@H]3CN(c4ccc(C#N)c5ncccc45)C[C@@H](C)O3)CC2)nc(N2CC(N)CC(F)(F)C2)n1 (stereo partly drawn) [Example 80, 5-[(2S,6R)-2-[[4-[2-(5-amino-3,3-difluoro-1-piperidyl)-6-methyl-pyrimidin-4-yl]piperazin-1-yl]methyl]-6-methyl-morpholin-4-yl]quinoline-8-carbonitrile]
18 | 2 | Cc1cc(N2CCN(C[C@H]3CN(c4ccc(C#N)c5ncccc45)C[C@@H](C)O3)CC2)nc(N2CCNC(C(C)(C)O)C2)n1 (stereo partly drawn) [Example 81, 5-[(2S,6R)-2-[[4-[2-[3-(1-hydroxy-1-methyl-ethyl)piperazin-1-yl]-6-methyl-pyrimidin-4-yl]piperazin-1-yl]methyl]-6-methyl-morpholin-4-yl]quinoline-8-carbonitrile]
19 | 3 | Cc1cc(N2CCN(C[C@H]3CN(c4ccc(C#N)c5ncccc45)C[C@@H](C)O3)CC2)nc(N2CC[C@@H](F)[C@@H](N)C2)n1 [Example 83, 5-[(2R,6S)-2-methyl-6-[[4-[6-methyl-2-[(3S,4R)-3-amino-4-fluoro-1-piperidyl]-pyrimidin-4-yl]piperazin-1-yl]methyl]morpholin-4-yl]quinoline-8-carbonitrile]
20 | 6 | Cc1cc(N2CCN(C[C@H]3CN(c4ccc(C#N)c5ncccc45)C[C@@H](C)O3)CC2)nc(N2CCC(N)C(F)(F)C2)n1 (stereo partly drawn) [Example 86, 5-[(2S,6R)-2-[[4-[2-(4-amino-3,3-difluoro-1-piperidyl)-6-methyl-pyrimidin-4-yl]piperazin-1-yl]methyl]-6-methyl-morpholin-4-yl]quinoline-8-carbonitrile]
21 | 2 | Cc1cc(N2CCN(C[C@H]3CN(c4ccc(C#N)c5ncccc45)C[C@@H](C)O3)CC2)nc(N2CC(N)C2)n1 [Example 87, 5-[(2S,6R)-2-[[4-[2-(3-aminoazetidin-1-yl)-6-methyl-pyrimidin-4-yl]piperazin-1-yl]methyl]-6-methyl-morpholin-4-yl]quinoline-8-carbonitrile]
22 | 29 | C[C@@H]1CN(c2ccc(C#N)c3ncccc23)C[C@H](CN2CCN(c3ccccc3C3CNCCO3)CC2)O1 (stereo partly drawn) [Example 89, 5-[(2R,6S)-2-methyl-6-[[4-(2-morpholin-2-ylphenyl)piperazin-1-yl]methyl]morpholin-4-yl]quinoline-8-carbonitrile]
